Test: Ligand stability studies (stock solution at room temperature, LC-MS)
Type: physicochemical
Conditions: stock solution ~300 μg in 4 mL DMSO/H2O [1:1 v/v] (water for other ligands), bench top, LC-MS every 24 h, 3 days
Protocol: Ligand stability studies: A stock solution (prepared by dissolving ˜300 μg of ligand in 4 mL of water; in the cases of Compound 2, 4 mL of DMSO/H2O[1:1 v/v] was used) was stored on bench top at room temperature without extra precautions.

decomposition of ligand stock solution by LC-MS: no decomposition was observed
Compound: C/C(=N\O)C(C)(C)NCCN(CCNC(C)(C)/C(C)=N/O)S(=O)(=O)c1ccc(C)cc1 [Compound 2, N,N-bis(2-((E)-3-(hydroxyimino)-2-methylbutan-2-ylamino)ethyl)-4-methylbenzenesulfonamide]

— patent US9125955B2, “99mTc imaging agents and methods of use” (GENERAL ELECTRIC COMPANY, priority 2012, dated 2015)
